According to US8093241B2, “Acid amide derivatives, process for their production and pesticides containing them” (Ishihara Sangyo Kaisha, Ltd., priority 2001, dated 2012):

test system: Southern Root-Knot Nematode (Meloidgyne incognita); assay: Test on southern root-knot nematode (soil incorporation); type: in vivo; design: key: 0: No knot was formed; 1: Knots were formed to a slight degree; 2: Knots were formed to a moderate degree; 3: Knots were formed to a heavy degree; 4: Knots were formed to the heaviest degree; details: 7 ml of 1600 ppm solution to 300 ml contaminated soil, tomato seedling, three to four weeks after transplantation
Method: Test on Southern Root-Knot Nematode (Meloidgyne incognita) (Soil Incorporation)
To 300 ml of the soil contaminated by southern root-knot nematode, 7 ml of a chemical solution having the concentration of the compound of the present invention adjusted to be 1600 ppm, is poured, followed by mixing so that the compound is uniformly dispersed. The treated soil is put into a pot (diameter: 9 cm, height: 8 cm), and then a tomato seedling in 2-leaf stage is transplanted and placed in a greenhouse. After three to four weeks from the transplantation of the tomato, the root knot index is determined based on the following standards. […] For example, the compound Nos. 1-25, 1-26, 1-73, 1-100, 1-122, 1-123, 1-125, 1-127, 1-130, 1-131, 1-133, 1-136, 1-137, 1-139, 1-140, 1-172, 1-173, 1-177, 5-5, 5-9, 5-11, 5-16, 5-20, 8-2, 8-5, 13-2, 13-4, 13-6, 13-7, 13-18, 13-19, 13-44, 13-45, 16-32, 16-37 and 16-38 were at a level of a root knot index of not more than 1.

Compound	root knot index
CC(C)(NC(=O)c1c(F)cccc1F)C(=O)c1ccc(OS(C)(=O)=O)cc1 [Compound No. 1-25, 2,6-difluoro-N-[(1,1-dimethyl-4′-methylsulfonyloxy)phenacyl]benzamide]	1
2-fluoro-N-[2-[(2,2,3,3,-tetrafluoro-5-methyl-1,4-benzodioxan-6-yl)carbonyl]-2-propyl]benzamide [Compound No. 16-37]	1
CC(C)(NC(=O)c1ccccc1C(N)=O)C(=O)c1ccc(Cl)cc1 [Compound No. 1-122, 2-aminocarbonyl-N-[(4′-chloro-1,1-dimethyl)phenacyl]benzamide]	1
CC(C)(NC(=O)c1c(F)cccc1F)C(=O)c1ccc(OS(=O)(=O)C(F)(F)F)cc1 [Compound No. 1-26, 2,6-difluoro-N-[(1,1-dimethyl-4′-trifluoromethylsulfonyloxy)phenacyl]benzamide]	1

test system: not given; assay: not given; details: not given

melting point	Compound
139 to 142 °C	CC(C)(NC(=O)c1c(F)cccc1F)C(=O)c1ccsc1 [Compound No. 6-5, 2,6-difluoro-N-[1-methyl-1-(3-thenoyl)ethyl]benzamide]
116 to 119 °C	CC(C)(NC(=O)c1c(F)cccc1F)C(=O)c1ccc(C(F)(F)F)cn1 [Compound No. 8-43, 2,6-difluoro-N-[2-(5-trifluoromethyl-2-pyridylcarbonyl)-2-propyl]benzamide]
